Measurements reported in the NIST ThermoML archive (doi:10.1021/je8009545).

Test: xn = mol fraction of the nth substance listed
Settings: Gas; for mass density: Gas pipette; for viscosity: Oscillating disk viscometry

COC [dimethyl ether] + N#N
Settings	mass density [kg/m3]	viscosity [mPa·s]
298.15 K, 101 kPa, x1 = 0.256	1.178	0.01483
298.15 K, 101 kPa, x1 = 0.449	1.433	0.013
298.15 K, 101 kPa, x1 = 0.752	1.783	0.01063
298.15 K, 101 kPa, x1 = 1	1.91	0.00922
298.15 K, 262 kPa, x1 = 0.752	4.839	0.0106
298.15 K, 264 kPa, x1 = 0.449	4.075	0.013
298.15 K, 296 kPa, x1 = 1	6.081	0.00918
298.15 K, 305 kPa, x1 = 0.256	4.298	0.01488
298.15 K, 475 kPa, x1 = 1	10.06	0.0091
298.15 K, 614 kPa, x1 = 0.752	11.78	0.0106
298.15 K, 640 kPa, x1 = 0.449	9.965	0.01303
298.15 K, 683 kPa, x1 = 0.256	9.296	0.01494
323.15 K, 101 kPa, x1 = 0.228	1.08	0.01629
323.15 K, 101 kPa, x1 = 0.449	1.144	0.01402
323.15 K, 101 kPa, x1 = 0.698	1.303	0.012
323.15 K, 101 kPa, x1 = 1	1.652	0.00997
323.15 K, 270 kPa, x1 = 0.698	4.353	0.01201
323.15 K, 295 kPa, x1 = 1	5.561	0.00996
323.15 K, 321 kPa, x1 = 0.449	4.449	0.01406
323.15 K, 354 kPa, x1 = 0.228	4.544	0.01632
323.15 K, 485 kPa, x1 = 0.698	7.499	0.01201
323.15 K, 486 kPa, x1 = 0.449	6.864	0.01408
323.15 K, 490 kPa, x1 = 1	9.31	0.00993
323.15 K, 553 kPa, x1 = 0.228	6.768	0.01636
323.15 K, 695 kPa, x1 = 0.698	11.57	0.01206
323.15 K, 714 kPa, x1 = 0.449	10.2	0.01408
323.15 K, 736 kPa, x1 = 1	14.71	0.00995
323.15 K, 910 kPa, x1 = 0.228	11.15	0.01636
323.15 K, 946 kPa, x1 = 0.698	15.73	0.01208
323.15 K, 976 kPa, x1 = 1	22.53	0.00994
323.15 K, 990 kPa, x1 = 0.449	13.89	0.01413
348.15 K, 101 kPa, x1 = 0.313	1.11	0.01638
348.15 K, 101 kPa, x1 = 0.491	1.237	0.01463
348.15 K, 101 kPa, x1 = 0.661	1.332	0.01319
348.15 K, 101 kPa, x1 = 1	1.332	0.01081
348.15 K, 294 kPa, x1 = 0.313	3.552	0.01639
348.15 K, 305 kPa, x1 = 1	5.17	0.01081
348.15 K, 306 kPa, x1 = 0.661	4.345	0.01319
348.15 K, 325 kPa, x1 = 0.491	4.155	0.01468
348.15 K, 519 kPa, x1 = 0.661	7.453	0.01321
348.15 K, 520 kPa, x1 = 0.313	6.153	0.01644
348.15 K, 525 kPa, x1 = 0.491	6.977	0.01471
348.15 K, 551 kPa, x1 = 1	9.705	0.01082
348.15 K, 992 kPa, x1 = 0.661	14.43	0.01327
348.15 K, 998 kPa, x1 = 0.313	11.96	0.0165
348.15 K, 1006 kPa, x1 = 1	19.03	0.01085
348.15 K, 1021 kPa, x1 = 0.491	13.54	0.01476
348.15 K, 1561 kPa, x1 = 1	35.81	0.01094
348.15 K, 1850 kPa, x1 = 1	44.66	0.01106
348.15 K, 1909 kPa, x1 = 0.491	26.07	0.01499
348.15 K, 2053 kPa, x1 = 0.661	33.49	0.01353
348.15 K, 2095 kPa, x1 = 0.313	25.47	0.01672
373.15 K, 101 kPa, x1 = 0.281	0.665	0.01773
373.15 K, 101 kPa, x1 = 0.522	0.95	0.01534
373.15 K, 101 kPa, x1 = 0.82	1.171	0.01282
373.15 K, 101 kPa, x1 = 1	1.235	0.01161
373.15 K, 301 kPa, x1 = 0.522	3.577	0.01535
373.15 K, 305 kPa, x1 = 1	4.748	0.0116
373.15 K, 312 kPa, x1 = 0.82	4.4	0.01285
373.15 K, 325 kPa, x1 = 0.281	3.419	0.01777
373.15 K, 500 kPa, x1 = 1	7.787	0.01162
373.15 K, 516 kPa, x1 = 0.82	7.217	0.01285
373.15 K, 520 kPa, x1 = 0.281	5.508	0.01777
373.15 K, 530 kPa, x1 = 0.522	6.584	0.01539
373.15 K, 1011 kPa, x1 = 0.281	10.64	0.01784
373.15 K, 1028 kPa, x1 = 1	16.71	0.01168
373.15 K, 1029 kPa, x1 = 0.522	12.76	0.0155
373.15 K, 1038 kPa, x1 = 0.82	15.16	0.01295
373.15 K, 1915 kPa, x1 = 0.281	20.8	0.01801
373.15 K, 1940 kPa, x1 = 1	35.33	0.01191
373.15 K, 1952 kPa, x1 = 0.82	30.93	0.01314
373.15 K, 2036 kPa, x1 = 0.522	25.83	0.01568
373.15 K, 2505 kPa, x1 = 1	51.25	0.01219
373.15 K, 2875 kPa, x1 = 1	67.49	0.01247
373.15 K, 2895 kPa, x1 = 0.82	51.12	0.01352
373.15 K, 3005 kPa, x1 = 0.281	33.02	0.01823
373.15 K, 3049 kPa, x1 = 1	74.07	0.01261
373.15 K, 3065 kPa, x1 = 0.522	40.84	0.01599
398.15 K, 101 kPa, x1 = 0.246	0.853	0.01917
398.15 K, 101 kPa, x1 = 0.525	0.885	0.01617
398.15 K, 101 kPa, x1 = 0.78	0.727	0.01397
398.15 K, 101 kPa, x1 = 1	0.948	0.01234
398.15 K, 300 kPa, x1 = 1	4.392	0.01237
398.15 K, 310 kPa, x1 = 0.246	2.938	0.01921
398.15 K, 315 kPa, x1 = 0.78	4.107	0.01399
398.15 K, 317 kPa, x1 = 0.525	3.633	0.01622
398.15 K, 516 kPa, x1 = 0.525	5.877	0.01623
398.15 K, 519 kPa, x1 = 0.246	5.15	0.01919
398.15 K, 531 kPa, x1 = 1	7.678	0.01239
398.15 K, 533 kPa, x1 = 0.78	7.077	0.01401
398.15 K, 992 kPa, x1 = 1	15.1	0.01244
398.15 K, 1009 kPa, x1 = 0.78	13.52	0.0141
398.15 K, 1020 kPa, x1 = 0.525	11.91	0.01629
398.15 K, 1048 kPa, x1 = 0.246	10.02	0.01926
398.15 K, 2018 kPa, x1 = 0.525	23.95	0.01651
398.15 K, 2030 kPa, x1 = 0.246	19.75	0.01943
398.15 K, 2030 kPa, x1 = 0.78	28.37	0.01433
398.15 K, 2085 kPa, x1 = 1	34.47	0.01274
398.15 K, 2973 kPa, x1 = 0.246	29.35	0.0196
398.15 K, 2985 kPa, x1 = 1	54.66	0.01317
398.15 K, 2986 kPa, x1 = 0.78	44.58	0.01465
398.15 K, 3015 kPa, x1 = 0.525	36.43	0.01675
398.15 K, 3735 kPa, x1 = 0.78	58.58	0.015
398.15 K, 3839 kPa, x1 = 0.246	37.95	0.01974
398.15 K, 3905 kPa, x1 = 0.525	47.93	0.01701
398.15 K, 3965 kPa, x1 = 1	87.68	0.0141
398.15 K, 4480 kPa, x1 = 1	112.3	0.01504
398.15 K, 4569 kPa, x1 = 0.78	77.25	0.0155
398.15 K, 4620 kPa, x1 = 1	122.4	0.01543
398.15 K, 4730 kPa, x1 = 0.525	59.49	0.01731
398.15 K, 4860 kPa, x1 = 0.246	48.5	0.01995
423.15 K, 101 kPa, x1 = 0.272	0.662	0.01978
423.15 K, 101 kPa, x1 = 0.527	0.694	0.01721
423.15 K, 101 kPa, x1 = 0.764	1.072	0.01516
423.15 K, 101 kPa, x1 = 1	1.009	0.01332
423.15 K, 310 kPa, x1 = 1	4.289	0.01333
423.15 K, 314 kPa, x1 = 0.272	2.901	0.01984
423.15 K, 316 kPa, x1 = 0.527	3.343	0.01723
423.15 K, 320 kPa, x1 = 0.764	4.447	0.01522
423.15 K, 505 kPa, x1 = 0.527	5.456	0.01726
423.15 K, 505 kPa, x1 = 1	6.812	0.01335
423.15 K, 520 kPa, x1 = 0.764	6.591	0.01524
423.15 K, 529 kPa, x1 = 0.272	4.699	0.01986
423.15 K, 985 kPa, x1 = 1	13.75	0.01342
423.15 K, 1021 kPa, x1 = 0.764	12.33	0.0153
423.15 K, 1040 kPa, x1 = 0.272	9.555	0.01994
423.15 K, 1047 kPa, x1 = 0.527	11.35	0.01734
423.15 K, 2013 kPa, x1 = 0.527	22.17	0.01753
423.15 K, 2022 kPa, x1 = 1	30.21	0.0137
423.15 K, 2030 kPa, x1 = 0.272	18.92	0.02008
423.15 K, 2060 kPa, x1 = 0.764	25.8	0.01558
423.15 K, 2926 kPa, x1 = 0.764	38.25	0.01581
423.15 K, 2955 kPa, x1 = 0.272	27.91	0.02018
423.15 K, 2995 kPa, x1 = 0.527	33.84	0.01769
423.15 K, 3004 kPa, x1 = 1	48.47	0.01413
423.15 K, 3970 kPa, x1 = 0.764	54.49	0.01621
423.15 K, 3973 kPa, x1 = 0.527	45.63	0.01796
423.15 K, 4000 kPa, x1 = 0.272	37.87	0.02038
423.15 K, 4015 kPa, x1 = 1	71.3	0.01477
423.15 K, 4495 kPa, x1 = 1	86.57	0.01521
423.15 K, 4873 kPa, x1 = 0.527	56.58	0.01822
423.15 K, 4894 kPa, x1 = 0.764	69.38	0.01664
423.15 K, 4911 kPa, x1 = 0.272	46.7	0.02057
423.15 K, 4912 kPa, x1 = 1	99.15	0.01568
